Assay results published in PubChem BioAssay AID264 (DTP/NCI, 2004).
Several values for one entry are separate records, joined by “and”; a condition that tells them apart may be missing. Equal values may be shown once. Results filed as inconclusive are left out.

Tested on: nude mice, LX-1 lung xenograft intrarenal, tumor weight T/C
Experiment: NCI In Vivo Anticancer Drug Screen. Data for tumor model Human Lung LX-1 Xenograft (intrarenal inoculation) in NU/NU Swiss (nude) mice
Details: endpoint: mean tumor weight change, higher = larger tumour
How it was run: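 In vivo, transplantable tumor; compound vs vehicle arms; tumor size measured; value = T/C.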

[1] = dose: 300.0 mg/kg/injection, schedule: Q04DX003 (sc), vehicle: saline with Tween-80
[2] = dose: 600.0 mg/kg/injection, schedule: Q04DX003 (sc), vehicle: saline with Tween-80
[3] = dose: 1200.0 mg/kg/injection, schedule: Q04DX003 (sc), vehicle: saline with Tween-80

CNc1nc(N(C)C)nc(N(C)C)n1
T/C (dose: 12.5 mg/kg/injection, schedule: Q04DX003 (sc), vehicle: water): 177 % of control
T/C (dose: 15.0 mg/kg/injection, schedule: Q01DX010 (ip), vehicle: water): 55 % of control
T/C (dose: 15.0 mg/kg/injection, schedule: Q01DX010 (sc), vehicle: water): 121 % of control
T/C (dose: 30.0 mg/kg/injection, schedule: Q01DX010 (ip), vehicle: water): 287 % of control
T/C (dose: 30.0 mg/kg/injection, schedule: Q01DX010 (sc), vehicle: water): 56 % of control
T/C (dose: 50.0 mg/kg/injection, schedule: Q04DX003 (ip), vehicle: water): 67 % of control
T/C (dose: 60.0 mg/kg/injection, schedule: Q01DX010 (ip), vehicle: water): 71 % of control
T/C (dose: 60.0 mg/kg/injection, schedule: Q01DX010 (sc), vehicle: water): 69 % of control
T/C (dose: 100.0 mg/kg/injection, schedule: Q04DX003 (ip), vehicle: water): 59 % of control
T/C (dose: 100.0 mg/kg/injection, schedule: Q04DX003 (sc), vehicle: water): 114 % of control and 218 % of control
T/C (dose: 120.0 mg/kg/injection, schedule: Q01DX010 (sc), vehicle: water): 64 % of control
T/C (dose: 200.0 mg/kg/injection, schedule: Q04DX003 (ip), vehicle: water): 54 % of control

N#C[Se-].c1ccc([Te+](c2ccccc2)c2ccccc2)cc1
T/C (dose: 6.25 mg/kg/injection, schedule: Q04DX003 (sc), vehicle: Klucel (hydroxypropylcellulose) (HPC)): 75 % of control
T/C (dose: 25.0 mg/kg/injection, schedule: Q04DX003 (sc), vehicle: Klucel (hydroxypropylcellulose) (HPC)): 82 % of control

O=C1c2c(O)ccc(O)c2C(=O)c2c(NCCNCCO)ccc(NCCNCCO)c21
T/C (dose: 0.5 mg/kg/injection, schedule: Q01DX010 (sc), vehicle: acid diluted with saline): 57 % of control
T/C (dose: 0.5 mg/kg/injection, schedule: Q01DX010 (sc), vehicle: water): 47 % of control
T/C (dose: 1.0 mg/kg/injection, schedule: Q01DX010 (sc), vehicle: acid diluted with saline): 40 % of control
T/C (dose: 1.0 mg/kg/injection, schedule: Q01DX010 (sc), vehicle: water): 34 % of control
T/C (dose: 2.0 mg/kg/injection, schedule: Q01DX010 (sc), vehicle: acid diluted with saline): 52 % of control
T/C (dose: 5.0 mg/kg/injection, schedule: Q04DX003 (sc), vehicle: water): 53 % of control
T/C (dose: 10.0 mg/kg/injection, schedule: Q04DX003 (sc), vehicle: water): 26 % of control

COC1(OC)C2C=CC1CC2
T/C [1]: 105 % of control
T/C [2]: 150 % of control
T/C [3]: 104 % of control

ClCCCN1CCN(CCCCl)CC1
T/C (dose: 150.0 mg/kg/injection, schedule: Q04DX003 (sc), vehicle: distilled water + alcohol): 90 % of control

c1ccc(CN2CCOC2)cc1
T/C (dose: 50.0 mg/kg/injection, schedule: Q01DX010 (sc), vehicle: saline): 81 % of control
T/C (dose: 100.0 mg/kg/injection, schedule: Q01DX010 (sc), vehicle: saline): 165 % of control

[N-]=[N+]=CC(=O)CCC(N)C(=O)O (configuration not stated)
T/C (dose: 0.05 mg/kg/injection, schedule: Q01DX010 (sc), vehicle: saline): 91 % of control
T/C (dose: 0.37 mg/kg/injection, schedule: Q01DX010 (sc), vehicle: saline): 12 % of control
T/C (dose: 0.75 mg/kg/injection, schedule: Q01DX010 (sc), vehicle: saline): -28 % of control

CCC[CH2][Sn]1([CH2]CCC)[O]C2C(CO)OC(n3ccc(N)nc3=O)C2[O]1 (configuration not stated)
T/C (dose: 12.0 mg/kg/injection, schedule: Q04DX003 (sc), vehicle: Klucel (hydroxypropylcellulose) (HPC)): 82 % of control
T/C (dose: 24.0 mg/kg/injection, schedule: Q04DX003 (sc), vehicle: Klucel (hydroxypropylcellulose) (HPC)): 66 % of control
T/C (dose: 48.0 mg/kg/injection, schedule: Q04DX003 (sc), vehicle: Klucel (hydroxypropylcellulose) (HPC)): 115 % of control

COc1ccc(OC)c(Cc2cnc3nc(N)nc(N)c3c2C)c1
T/C (dose: 75.0 mg/kg/injection, schedule: Q04DX003 (sc), vehicle: water): 82 % of control
T/C (dose: 150.0 mg/kg/injection, schedule: Q04DX003 (sc), vehicle: water): 80 % of control
T/C (dose: 300.0 mg/kg/injection, schedule: Q04DX003 (sc), vehicle: water): 94 % of control
T/C (dose: 600.0 mg/kg/injection, schedule: Q04DX003 (sc), vehicle: water): 94 % of control

COC(C(=O)C(O)C(C)O)C1Cc2cc3cc(OC4CC(OC(C)=O)C(OC5CC(O)C(OC)C(C)O5)C(C)O4)cc(O)c3c(O)c2C(=O)C1OC1CC(OC2CC(OC3CC(C)(O)C(OC(=O)C(C)C)C(C)O3)C(O)C(C)O2)C(O)C(C)O1 (configuration not stated)
T/C (dose: 1.0 mg/kg/injection, schedule: Q04DX003 (sc), vehicle: saline with Tween-80): 77 % of control
T/C (dose: 2.0 mg/kg/injection, schedule: Q04DX003 (sc), vehicle: saline with Tween-80): 58 % of control
T/C (dose: 4.0 mg/kg/injection, schedule: Q01DX010 (sc), vehicle: saline with Tween-80): 12 % of control and 30 % of control
T/C (dose: 4.0 mg/kg/injection, schedule: Q04DX003 (sc), vehicle: saline with Tween-80): 50 % of control

O=c1nc(Oc2ccccc2)nc2ncccn12
T/C (dose: 25.0 mg/kg/injection, schedule: Q01DX010 (sc), vehicle: saline with Tween-80): 190 % of control
T/C (dose: 50.0 mg/kg/injection, schedule: Q01DX010 (sc), vehicle: saline with Tween-80): 165 % of control
T/C (dose: 100.0 mg/kg/injection, schedule: Q01DX010 (sc), vehicle: saline with Tween-80): 118 % of control
T/C (dose: 200.0 mg/kg/injection, schedule: Q01DX010 (sc), vehicle: saline with Tween-80): 210 % of control

OCC1OC(n2cnc3c(NO)ncnc32)C(O)C1O (configuration not stated)
T/C (dose: 300.0 mg/kg/injection, schedule: Q04DX003 (sc), vehicle: Klucel (hydroxypropylcellulose) (HPC)): 105 % of control
T/C (dose: 600.0 mg/kg/injection, schedule: Q04DX003 (sc), vehicle: Klucel (hydroxypropylcellulose) (HPC)): 102 % of control
T/C (dose: 1200.0 mg/kg/injection, schedule: Q04DX003 (sc), vehicle: Klucel (hydroxypropylcellulose) (HPC)): 86 % of control
T/C (dose: 2400.0 mg/kg/injection, schedule: Q04DX003 (sc), vehicle: Klucel (hydroxypropylcellulose) (HPC)): 68 % of control

S=c1[nH]cc2cnccn12
T/C [1]: 151 % of control
T/C [3]: 83 % of control
T/C (dose: 2400.0 mg/kg/injection, schedule: Q04DX003 (sc), vehicle: saline with Tween-80): 94 % of control

O=C(O)c1c2c(nc3ccccc13)Cc1ccccc1-2
T/C (dose: 100.0 mg/kg/injection, schedule: Q01DX010 (sc), vehicle: water): 39 % of control
T/C (dose: 200.0 mg/kg/injection, schedule: Q01DX010 (sc), vehicle: water): 33 % of control

COc1cc2c3c(cccc3c1)C(=O)N(CCN(C)C)C2=O
T/C (dose: 75.0 mg/kg/injection, schedule: Q04DX003 (sc), vehicle: saline with Tween-80): 98 % of control
T/C (dose: 150.0 mg/kg/injection, schedule: Q04DX003 (sc), vehicle: saline with Tween-80): 115 % of control
T/C [1]: 53 % of control
T/C [2]: 79 % of control

CC(=O)[O][Pb]([O]C(C)=O)([c]1ccccc1)[c]1ccccc1
T/C (dose: 400.0 mg/kg/injection, schedule: Q01DX010 (sc), vehicle: Klucel (hydroxypropylcellulose) (HPC)): 40 % of control

CC1(O)CC23CC(O)C4(O)C(CC(O)C4(C)C)C(C)(O)C2CCC1C3O (configuration not stated)
T/C (dose: 0.25 mg/kg/injection, schedule: Q04DX003 (sc), vehicle: Klucel (hydroxypropylcellulose) (HPC)): 78 % of control
T/C (dose: 0.5 mg/kg/injection, schedule: Q04DX003 (sc), vehicle: Klucel (hydroxypropylcellulose) (HPC)): 77 % of control
T/C (dose: 1.0 mg/kg/injection, schedule: Q04DX003 (sc), vehicle: Klucel (hydroxypropylcellulose) (HPC)): 58 % of control

COc1cccc2c1C(=O)c1c(O)c3c(c(O)c1C2=O)C[C@@](O)(C(=O)CO)C[C@@H]3OC1CC(N)CC(C)O1 (some centres not stated)
T/C (dose: 1.5 mg/kg/injection, schedule: Q01DX010 (sc), vehicle: water): 23 % of control

C[N+](C)(C)c1cc2c(nn1)Nc1ccccc1S2
T/C (dose: 100.0 mg/kg/injection, schedule: Q01DX010 (sc), vehicle: Klucel (hydroxypropylcellulose) (HPC)): 89 % of control

COc1cccc2c1C(=O)c1c(O)c3c(c(O)c1C2=O)C[C@@](O)(/C(C)=N/NC(=O)c1cccc([N+](=O)[O-])c1)C[C@@H]3OC1CC(N)C(O)C(C)O1 (some centres not stated)
T/C (dose: 8.0 mg/kg/injection, schedule: Q01DX010 (sc), vehicle: water): 68 % of control
T/C (dose: 16.0 mg/kg/injection, schedule: Q01DX010 (sc), vehicle: water): 78 % of control
T/C (dose: 24.0 mg/kg/injection, schedule: Q04DX003 (sc), vehicle: water): 54 % of control
T/C (dose: 48.0 mg/kg/injection, schedule: Q04DX003 (sc), vehicle: water): 9 % of control
T/C (dose: 96.0 mg/kg/injection, schedule: Q04DX003 (sc), vehicle: water): 25 % of control

Nc1ncnc2c1ccn2C1OC(CO)C(O)C1O (configuration not stated)
T/C (dose: 1.0 mg/kg/injection, schedule: Q01DX010 (sc), vehicle: Klucel (hydroxypropylcellulose) (HPC)): 85 % of control
T/C (dose: 2.0 mg/kg/injection, schedule: Q01DX010 (sc), vehicle: Klucel (hydroxypropylcellulose) (HPC)): 101 % of control
T/C (dose: 4.0 mg/kg/injection, schedule: Q01DX010 (sc), vehicle: Klucel (hydroxypropylcellulose) (HPC)): 53 % of control
